Tests used:
[1] = Linker solution hydrolysis (release of drug mimic, HPLC, first order rate constant); format: physicochemical; settings: 37° C.
Procedure: The hydrolysis rate of a linker was studied without attachment to a naphthalimide compound or tissue attachment under physiological conditions. The work verified the expected hydrolysis rate and when combined with ex vivo data allows the influence of the tissue on the hydrolysis rate to be determined.
A 20 mg/mL stock solution of a drug mimic, such as an FITC derivative, was prepared by weighing out approximately 20 mg of material and diluting with 1 mL of H20. The release rate of each compound, the free mimic from its respective linker, was studied in duplicate as a function of time and pH (phosphate buffered saline (PBS) at pH=1, pH=7.4, and pH=10). The starting concentration for each preparation was 400 μg/mL of drug mimic with attached linker (20 μL of stock solution diluted with 980 μL of hydrolysis PBS). In order to more accurately mimic clinical conditions samples were prepared and stored in a 37° C. oven with slow agitation using a rotating mixer until analyzed using HPLC. The concentration of the target complex was determined in duplicates at multiple time points (t=0, 8, 24, 48, 72, 144, 216 hours) using the HPLC conditions below and quantitation using a standard curve. A 2 mg/mL stock solution of the target complex was prepared by weighing out approximately 20 mg of target complex and diluting with 10 mL of H2O. The following concentrations from the stock solution were prepared by performing serial dilutions in H2O:
Quantitation using a standard curve was used to determine the amount of drug mimic released (μg) at each time point and duplicate sample preparations at each time point were averaged. […] The detection limit of the method was 1 μg/mL. The standard curve for 3-phenylpropanol was also linear over the range of 1 μg/mL to 100 μg/mL with a detection limit of the method at 1 μg/mL.
Using the HPLC release data calculated for the free Bn and 3PP, shown below, kinetic curves were plotted (concentration vs time) for each compound using PSI Plot. The concentration was fit to a first order kinetic equation, where CT=CF−Cce^−kt (CT is the concentration at each time point (μg), CF is the final concentration (μg), Cc is the change in concentration (μg), and k is the rate constant (hr^−1). If the reaction rate didn't display first order kinetics (ie: there was a systematic deviation between the experimental points and the calculated rate constant) other kinetic models were examined. Typically data was collected until at least 90% of the expected product was released. A sample kinetic curve is shown in FIG. 15B.
The HPLC method was able to determine the identity of each compound and the component linker and drug mimic by the retention time as shown in the Table below. • Analytical Column: Alltima HP Rocket C18 3μ 53 mm×7 mm • Mobile Phase: A: 0.1% Trifluoroacetic acid(aq) (TFA), • B: 9:1 Acetonitrile:Water (0.1% TFA) • Gradient: 95% A hold for 1 minute, then ramp to 65% B at 7 minutes, hold for 0.5 minutes • (Equilibration time 5 minutes) • Detector: PDA detector at 440 nm Fluorescence detector excitation wavelength at nm emission wavelength at nm • Injection Volume: 20 μL • Flow Rate: 2.5 mL/min
Using the concentration versus time data, a rate constant was calculated for each compound at various pHs. […] The enhanced rate for the hydrolysis of the Gly/Bn is likely due to the formation of an internal 5 membered ring that would be autocatalytic.

[2] = test system: calcified plaque in postmortem diseased femoral arteries; test: IVUS analysis of human cadaveric arterial samples (echogenicity)
Description: The following equipment was used in this Example: IVUS, Boston Scientific iLab 120 CARTR, UPN Product number: H749iLab120CARTRO, manufactured April 2011, Serial number 7347. The software is iReview version 1.0. The catheter is Boston Scientific Atlantis SR Pro 40 MHz Coronary Imaging Catheter, catalog number 38942, 3.6 F×135 cm.
IVUS images have identified different types of plaque, e.g., soft, mixed, hard, and calcified. M. Sahara, et al., “Soft Plaque Detected on Intravascular Ultrasound Is the Strongest Predictor of In-Stent Restenosis: an Intravascular Ultrasound Study,” European Heart Journal, 25: 2026-2033 (2004), the disclosure of which is hereby incorporated by reference. For example, calcified plaque has been identified by two characteristics, i.e., a high echogenicity resulting in an intense reflection (bright white) and the presence of an acoustic shadow behind the plaque because the ultrasound cannot penetrate the calcified plaque.
Postmortem diseased femoral arteries (both left and right) were received approximately 16 hours after the time of death. The samples were inspected to assess the level of disease. When palpated both the right and left arteries were extremely hard and rigid throughout the entire length of both arteries. Occlusion was visually judged as ranging from 20-60%. The artery was placed in PBS and IVUS pullback (0.5 mm/s) was completed three times (PRE 1, PRE 2, PRE 3). […] The artery was thoroughly rinsed with PBS to remove any excess plaque-softening compound. The artery was then placed into PBS and an IVUS pullback was conducted three times (SOAK 1, SOAK 2, SOAK 3). A balloon angioplasty catheter was placed into the artery and inflated to the reference vessel diameter (RVD) without any overstrech. A radially emitting light fiber was inserted into the catheter and centered in the angioplasty balloon. The composition was activated by exposure to blue light (447 nm) at an intensity of 1800 mW for 60 seconds. The balloon catheter was removed and an IVUS pullback was completed three times (POST 1, POST 2, POST 3).
Each frame of each pullback (PRE 1, PRE 2, PRE 3, SOAK 1, SOAK 2, SOAK 3, POST 1, POST 2, POST 3) was analyzed and calcified plaque was identified including the acoustic shadow behind each area of plaque. FIGS. 15a and 15b are the IVUS images from frame 921 of PRE 1 and illustrate the existence of plaque. For each frame, the intensity of each gray pixel (based upon 255 shades of gray, “AVI” format and 521×521 pixels) within the arterial wall was determined. FIG. 17 is a histogram illustrating the gray scale of frame 921, PRE 1, wherein the y-axis is the pixel count and the x-axis is the pixel intensity. So, for example, there were a lot of pixels having a pixel intensity of 16 and very few pixels having a pixel intensity of 168. It is known that the relative amount of hypo-echogenic and hyper-echogenic reflections can be used to measure the change in calcified plaque. See S. Brugaletta, et al., “Serial In Vivo Intravascular Ultrasound-Based Echogenicity Changes of Everolimus-eluting Bioresorbable Vascular Scaffold During the First 12 Months After Implantation,” JACC: Cardiovascular Interventions, 4 (12):1281-1289 (2011), the disclosure of which is hereby incorporated by reference. For example, it is known that pixels with a gray scale intensity of 92 or lower were judged to be hypo-echogenic and those with a gray scale intensity of 93 or higher were judged to be hyper-echogenic. To be clear, in the instant Example, the mean gray value of the adventitia was used to classify tissue components as either hypo- or hyper-echogenic. One of ordinary skill in the art could easily determine the gray scale threshold for any data set in order to classify tissue components as either hypo- or hyper-echogenic.
The pixel intensity of the entire IVUS pullback data was analyzed as a single data set. […]

artery = test: Arterial compression by other photoactivated material; settings: FIG. 13
Procedure: Singlet oxygen generating species, such as Rose Bengal, riboflavin, and methylene blue were tested to determine if they would be effective at arterial compression.

In the case of `NCC(=O)OCc1ccccc1` [Gly/Bn, Benzyl Glycinate], the “hydrolysis rate constant k” value ([1]; pH 1, PBS) is reported as 0.002 h⁻¹, the “hydrolysis rate constant k” value ([1]; pH 7.4, PBS) is reported as 0.311 h⁻¹ and the “hydrolysis rate constant k” value ([1]; pH 10, PBS) is reported as 0.156 h⁻¹.

For `Nc1ccc2c3c(cccc13)C(=O)NC2=O` [4-amino-1,8-naphthalimide], the “flexibility of artery after treatment” value ([2]; after soak, balloon and light activation) was “more flexible and softer”, the “Hypo-Echogenic pixels/Hyper-Echogenic pixels” value ([2]; entire IVUS pullback data, POST (soak plus balloon and 447 nm 1800 mW 60 seconds)) was 5.011 and the “Hypo-Echogenic pixels/Hyper-Echogenic pixels” value ([2]; entire IVUS pullback data, SOAK (2.5 mM, 5 minutes)) was 4.699. The “Hypo-Echogenic pixels/Hyper-Echogenic pixels” value ([2]; frame 921, POST) was 12.556, the “Hypo-Echogenic pixels/Hyper-Echogenic pixels” value ([2]; frame 921, SOAK) was 7.500 and the “Hypo-Echogenic pixels/Hyper-Echogenic pixels” value ([2]; frame 2925, POST) was 21.050. The “Hypo-Echogenic pixels/Hyper-Echogenic pixels” value ([2]; frame 2925, SOAK) was 9.043.

With `NCC(=O)OCCCc1ccccc1` [Gly/3PP, 3-Phenylpropyl Glycinate] the “hydrolysis rate constant k” value ([1]; pH 1, PBS) was 0.004 h⁻¹, the “hydrolysis rate constant k” value ([1]; pH 7.4, PBS) was 0.082 h⁻¹ and the “hydrolysis rate constant k” value ([1]; pH 10, PBS) was 0.155 h⁻¹.

With `Cc1cc2nc3c(=O)[nH]c(=O)nc-3n(C[C@H](O)[C@H](O)[C@H](O)CO)c2cc1C` [riboflavin] the “efficacy at arterial compression” value (artery) was “No efficacy was observed”.

In the case of `CN(C)c1ccc2nc3ccc(=[N+](C)C)cc-3sc2c1` [methylene blue], the “efficacy at arterial compression” value (artery) is reported as “No efficacy was observed”.

For `O=C([O-])c1c(Cl)c(Cl)c(Cl)c(Cl)c1-c1c2cc(I)c(=O)c(I)c-2oc2c(I)c([O-])c(I)cc12.[Na+].[Na+]` [Rose Bengal], the “efficacy at arterial compression” value (artery) was “No efficacy was observed”.

With `NCCCC(=O)OCc1ccccc1` [GABA/Bn, Benzyl GABA] the “hydrolysis rate constant k” value ([1]; pH 1, PBS) was 0.026 h⁻¹, the “hydrolysis rate constant k” value ([1]; pH 7.4, PBS) was 0.011 h⁻¹ and the “hydrolysis rate constant k” value ([1]; pH 10, PBS) was 0.226 h⁻¹.

In the case of `NCCCC(=O)OCCCc1ccccc1` [GABA/3PP, 3-Phenylpropyl GABA], the “hydrolysis rate constant k” value ([1]; pH 1, PBS) is reported as 0.034 h⁻¹, the “hydrolysis rate constant k” value ([1]; pH 7.4, PBS) is reported as 0.010 h⁻¹ and the “hydrolysis rate constant k” value ([1]; pH 10, PBS) is reported as 0.124 h⁻¹.

From patent publication US10131635B2, “Compositions and methods of using the compositions for plaque softening” (ALUMEND, LLC, priority 2013, dated 2018)
